# Source: US20230123334A1, “AMINO LIPID COMPOUND, PREPARATION METHOD THEREFOR, AND APPLICATION THEREOF” (SHENZHEN SHENXIN BIOTECHNOLOGY CO., LTD., priority 2020, published 2023)
# System: HEK293 cells
# Experiment: Preliminary screening as DNA vectors, GFP transfection of HEK293 cells
# Assay type: cell-based
# Conditions: HEK293 cells; lipid/DOPE liposome with 75 ng plasmid DNA (psin-EGFP-IRES-Puro); number of cells expressing GFP divided by total number of nuclei (Hoechst)
# How it was run: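 First, amino lipid and DOPE were vortexed in sodium acetate buffer (pH 5.6) to form liposomes. Next, these were held with 75 ng EGFP plasmid at room temperature for 30 min. Finally, HEK293 cells were added, cultured at 37° C., Hoechst-stained, and GFP+/total nuclei scored by imaging.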
row,SMILES,Absolute DNA transfection efficiency in HEK293 cells [%]
1,CCCCCCCCCCCSc1nc(NCCN(C)C)nc(SCCCCCCCCC)n1 [Compound S9S11D1],9.5
2,CCCCCCCCCCCSc1nc(NCCN2CCOCC2)nc(SCCCCCCCCC)n1 [Compound S9S11D2],17.3
3,CCCCCCCCCCCSc1nc(NCCN2CCCC2)nc(SCCCCCCCCC)n1 [Compound S9S11D3],10.0
4,CCCCCCCCCCCSc1nc(NCCN2CCCCC2)nc(SCCCCCCCCC)n1 [Compound S9S11D4],15.2
5,CCCCCCCCCCCSc1nc(NCCN2CCN(C)CC2)nc(SCCCCCCCCC)n1 [Compound S9S11D5],11.4
6,CCCCCCCCCCCSc1nc(NCCCN(C)C)nc(SCCCCCCCCC)n1 [Compound S9S11D6],41.9
7,CCCCCCCCCCCSc1nc(NCCN(CC)CC)nc(SCCCCCCCCC)n1 [Compound S9S11D7],8.1
8,CCCCCCCCCCCSc1nc(NCCCN2CCOCC2)nc(SCCCCCCCCC)n1 [Compound S9S11D8],21.8
9,CCCCCCCCCCCSc1nc(NCCCN2CCN(C)CC2)nc(SCCCCCCCCC)n1 [Compound S9S11D9],8.5
10,CCCCCCCCCCCSc1nc(NCC2CCN(C)CC2)nc(SCCCCCCCCC)n1 [Compound S9S11D10],32.8
11,CCCCCCCCCCCCCCCCCCSc1nc(NCCN(C)C)nc(SCCCCCCCCC)n1 [Compound S9S18D1],4.9
12,CCCCCCCCCCCCCCCCCCSc1nc(NCCN2CCOCC2)nc(SCCCCCCCCC)n1 [Compound S9S18D2],2.3
13,CCCCCCCCCCCCCCCCCCSc1nc(NCCN2CCCC2)nc(SCCCCCCCCC)n1 [Compound S9S18D3],13.9
14,CCCCCCCCCCCCCCCCCCSc1nc(NCCN2CCCCC2)nc(SCCCCCCCCC)n1 [Compound S9S18D4],5.5
15,CCCCCCCCCCCCCCCCCCSc1nc(NCCN2CCN(C)CC2)nc(SCCCCCCCCC)n1 [Compound S9S18D5],4.0
16,CCCCCCCCCCCCCCCCCCSc1nc(NCCCN(C)C)nc(SCCCCCCCCC)n1 [Compound S9S18D6],1.7
17,CCCCCCCCCCCCCCCCCCSc1nc(NCCN(CC)CC)nc(SCCCCCCCCC)n1 [Compound S9S18D7],11.8
18,CCCCCCCCCCCCCCCCCCSc1nc(NCCCN2CCOCC2)nc(SCCCCCCCCC)n1 [Compound S9S18D8],27.0
19,CCCCCCCCCCCCCCCCCCSc1nc(NCCCN2CCN(C)CC2)nc(SCCCCCCCCC)n1 [Compound S9S18D9],0.0
20,CCCCCCCCCCCCCCCCCCSc1nc(NCC2CCN(C)CC2)nc(SCCCCCCCCC)n1 [Compound S9S18D10],7.0
21,CCCCCCCCCCSc1nc(NCCN(C)C)nc(SCCCCCCCCCC)n1 [Compound S10S10D1],7.8
22,CCCCCCCCCCSc1nc(NCCN2CCOCC2)nc(SCCCCCCCCCC)n1 [Compound S10S10D2],4.0

row,SMILES,Absolute DNA transfection efficiency in HEK293 cells [%]
1,CCCCCCCCCCSc1nc(NCCN2CCCC2)nc(SCCCCCCCCCC)n1 [Compound S10S10D3],13.6
2,CCCCCCCCCCSc1nc(NCCN2CCCCC2)nc(SCCCCCCCCCC)n1 [Compound S10S10D4],5.5
3,CCCCCCCCCCSc1nc(NCCN2CCN(C)CC2)nc(SCCCCCCCCCC)n1 [Compound S10S10D5],14.7
4,CCCCCCCCCCSc1nc(NCCCN(C)C)nc(SCCCCCCCCCC)n1 [Compound S10S10D6],23.6
5,CCCCCCCCCCSc1nc(NCCN(CC)CC)nc(SCCCCCCCCCC)n1 [Compound S10S10D7],7.2
6,CCCCCCCCCCSc1nc(NCCCN2CCOCC2)nc(SCCCCCCCCCC)n1 [Compound S10S10D8],14.0
7,CCCCCCCCCCSc1nc(NCCCN2CCN(C)CC2)nc(SCCCCCCCCCC)n1 [Compound S10S10D9],13.4
8,CCCCCCCCCCSc1nc(NCC2CCN(C)CC2)nc(SCCCCCCCCCC)n1 [Compound S10S10D10],18.8
9,CCCCCCCCCCCSc1nc(NCCN(C)C)nc(SCCCCCCCCCC)n1 [Compound S10S11D1],7.0
10,CCCCCCCCCCCSc1nc(NCCN2CCOCC2)nc(SCCCCCCCCCC)n1 [Compound S10S11D2],2.2
11,CCCCCCCCCCCSc1nc(NCCN2CCCC2)nc(SCCCCCCCCCC)n1 [Compound S10S11D3],6.8
12,CCCCCCCCCCCSc1nc(NCCN2CCCCC2)nc(SCCCCCCCCCC)n1 [Compound S10S11D4],16.7
13,CCCCCCCCCCCSc1nc(NCCN2CCN(C)CC2)nc(SCCCCCCCCCC)n1 [Compound S10S11D5],8.4
14,CCCCCCCCCCCSc1nc(NCCCN(C)C)nc(SCCCCCCCCCC)n1 [Compound S10S11D6],8.2
15,CCCCCCCCCCCSc1nc(NCCN(CC)CC)nc(SCCCCCCCCCC)n1 [Compound S10S11D7],7.3
16,CCCCCCCCCCCSc1nc(NCCCN2CCOCC2)nc(SCCCCCCCCCC)n1 [Compound S10S11D8],16.4
17,CCCCCCCCCCCSc1nc(NCCCN2CCN(C)CC2)nc(SCCCCCCCCCC)n1 [Compound S10S11D9],13.6
18,CCCCCCCCCCCSc1nc(NCC2CCN(C)CC2)nc(SCCCCCCCCCC)n1 [Compound S10S11D10],13.3
19,CCCCCCCCCCCCSc1nc(NCCN(C)C)nc(SCCCCCCCCCC)n1 [Compound S10S12D1],6.6
20,CCCCCCCCCCCCSc1nc(NCCN2CCOCC2)nc(SCCCCCCCCCC)n1 [Compound S10S12D2],2.4
21,CCCCCCCCCCCCSc1nc(NCCN2CCCC2)nc(SCCCCCCCCCC)n1 [Compound S10S12D3],8.2

# System: HEK293 cells
# Experiment: Preliminary screening as mRNA vectors, EGFP mRNA transfection of HEK293 cells
# Assay type: cell-based
# Conditions: HEK293 cells, 96-well plates, EGFP mRNA 50 ng per well; percentage of GFP fluorescent cells relative to total number of cells (Hoechst)
# How it was run: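 Screening format: EGFP mRNA transfection (50 ng/well) into HEK293 in 10% FBS-supplemented DMEM. Percent green fluorescent cells, normalised to Hoechst nuclear count, gave the value; Lipofectamine2000 was the reference transfectant.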
row,SMILES,Absolute mRNA transfection efficiency in HEK293 cells [%]
1,CCCCCCCCCCCSc1nc(NCCN(C)C)nc(SCCCCCCCCC)n1 [Compound S9S11D1],3.0
2,CCCCCCCCCCCSc1nc(NCCN2CCOCC2)nc(SCCCCCCCCC)n1 [Compound S9S11D2],3.3
3,CCCCCCCCCCCSc1nc(NCCN2CCCC2)nc(SCCCCCCCCC)n1 [Compound S9S11D3],1.9
4,CCCCCCCCCCCSc1nc(NCCN2CCCCC2)nc(SCCCCCCCCC)n1 [Compound S9S11D4],4.1
5,CCCCCCCCCCCSc1nc(NCCN2CCN(C)CC2)nc(SCCCCCCCCC)n1 [Compound S9S11D5],48.6
6,CCCCCCCCCCCSc1nc(NCCCN(C)C)nc(SCCCCCCCCC)n1 [Compound S9S11D6],85.1
7,CCCCCCCCCCCSc1nc(NCCN(CC)CC)nc(SCCCCCCCCC)n1 [Compound S9S11D7],2.5
8,CCCCCCCCCCCSc1nc(NCCCN2CCOCC2)nc(SCCCCCCCCC)n1 [Compound S9S11D8],24.4
9,CCCCCCCCCCCSc1nc(NCCCN2CCN(C)CC2)nc(SCCCCCCCCC)n1 [Compound S9S11D9],49.7
10,CCCCCCCCCCCSc1nc(NCC2CCN(C)CC2)nc(SCCCCCCCCC)n1 [Compound S9S11D10],88.8
11,CCCCCCCCCCCCCCCCCCSc1nc(NCCN(C)C)nc(SCCCCCCCCC)n1 [Compound S9S18D1],2.7
12,CCCCCCCCCCCCCCCCCCSc1nc(NCCN2CCOCC2)nc(SCCCCCCCCC)n1 [Compound S9S18D2],0.0
13,CCCCCCCCCCCCCCCCCCSc1nc(NCCN2CCCC2)nc(SCCCCCCCCC)n1 [Compound S9S18D3],35.8
14,CCCCCCCCCCCCCCCCCCSc1nc(NCCN2CCCCC2)nc(SCCCCCCCCC)n1 [Compound S9S18D4],0.6
15,CCCCCCCCCCCCCCCCCCSc1nc(NCCN2CCN(C)CC2)nc(SCCCCCCCCC)n1 [Compound S9S18D5],22.0
16,CCCCCCCCCCCCCCCCCCSc1nc(NCCCN(C)C)nc(SCCCCCCCCC)n1 [Compound S9S18D6],11.6
17,CCCCCCCCCCCCCCCCCCSc1nc(NCCN(CC)CC)nc(SCCCCCCCCC)n1 [Compound S9S18D7],1.9
18,CCCCCCCCCCCCCCCCCCSc1nc(NCCCN2CCOCC2)nc(SCCCCCCCCC)n1 [Compound S9S18D8],12.4
19,CCCCCCCCCCCCCCCCCCSc1nc(NCCCN2CCN(C)CC2)nc(SCCCCCCCCC)n1 [Compound S9S18D9],4.0
20,CCCCCCCCCCCCCCCCCCSc1nc(NCC2CCN(C)CC2)nc(SCCCCCCCCC)n1 [Compound S9S18D10],43.6
21,CCCCCCCCCCSc1nc(NCCN(C)C)nc(SCCCCCCCCCC)n1 [Compound S10S10D1],0.7
22,CCCCCCCCCCSc1nc(NCCN2CCOCC2)nc(SCCCCCCCCCC)n1 [Compound S10S10D2],0.4

row,SMILES,Absolute mRNA transfection efficiency in HEK293 cells [%]
1,CCCCCCCCCCSc1nc(NCCN2CCCC2)nc(SCCCCCCCCCC)n1 [Compound S10S10D3],5.0
2,CCCCCCCCCCSc1nc(NCCN2CCCCC2)nc(SCCCCCCCCCC)n1 [Compound S10S10D4],2.5
3,CCCCCCCCCCSc1nc(NCCN2CCN(C)CC2)nc(SCCCCCCCCCC)n1 [Compound S10S10D5],45.9
4,CCCCCCCCCCSc1nc(NCCCN(C)C)nc(SCCCCCCCCCC)n1 [Compound S10S10D6],59.1
5,CCCCCCCCCCSc1nc(NCCN(CC)CC)nc(SCCCCCCCCCC)n1 [Compound S10S10D7],2.0
6,CCCCCCCCCCSc1nc(NCCCN2CCOCC2)nc(SCCCCCCCCCC)n1 [Compound S10S10D8],13.8
7,CCCCCCCCCCSc1nc(NCCCN2CCN(C)CC2)nc(SCCCCCCCCCC)n1 [Compound S10S10D9],51.3
8,CCCCCCCCCCSc1nc(NCC2CCN(C)CC2)nc(SCCCCCCCCCC)n1 [Compound S10S10D10],87.1
9,CCCCCCCCCCCSc1nc(NCCN(C)C)nc(SCCCCCCCCCC)n1 [Compound S10S11D1],1.2
10,CCCCCCCCCCCSc1nc(NCCN2CCOCC2)nc(SCCCCCCCCCC)n1 [Compound S10S11D2],0.6
11,CCCCCCCCCCCSc1nc(NCCN2CCCC2)nc(SCCCCCCCCCC)n1 [Compound S10S11D3],4.4
12,CCCCCCCCCCCSc1nc(NCCN2CCCCC2)nc(SCCCCCCCCCC)n1 [Compound S10S11D4],0.0
13,CCCCCCCCCCCSc1nc(NCCN2CCN(C)CC2)nc(SCCCCCCCCCC)n1 [Compound S10S11D5],61.1
14,CCCCCCCCCCCSc1nc(NCCCN(C)C)nc(SCCCCCCCCCC)n1 [Compound S10S11D6],83.8
15,CCCCCCCCCCCSc1nc(NCCN(CC)CC)nc(SCCCCCCCCCC)n1 [Compound S10S11D7],1.8
16,CCCCCCCCCCCSc1nc(NCCCN2CCOCC2)nc(SCCCCCCCCCC)n1 [Compound S10S11D8],8.3
17,CCCCCCCCCCCSc1nc(NCCCN2CCN(C)CC2)nc(SCCCCCCCCCC)n1 [Compound S10S11D9],60.6
18,CCCCCCCCCCCSc1nc(NCC2CCN(C)CC2)nc(SCCCCCCCCCC)n1 [Compound S10S11D10],93.7
19,CCCCCCCCCCCCSc1nc(NCCN(C)C)nc(SCCCCCCCCCC)n1 [Compound S10S12D1],0.0
20,CCCCCCCCCCCCSc1nc(NCCN2CCOCC2)nc(SCCCCCCCCCC)n1 [Compound S10S12D2],0.0
21,CCCCCCCCCCCCSc1nc(NCCN2CCCC2)nc(SCCCCCCCCCC)n1 [Compound S10S12D3],7.6
